From US20050124497A1, “Delta1-pyrrolines and their use as pest control agents” (priority 2002, published 2005)

Tested on: caterpillars of the diamondback moth (Plutella xylostella)
Experiment: Plutella test
Type: in vivo
Details: 100 ppm active compound, cabbage leaves dipped, kill after 7 d
Protocol: To produce a suitable preparation of active compound, 1 part by weight of active compound is mixed with the stated amounts of solvent and emulsifier, and the concentrate is diluted with emulsifier-containing water to the desired concentration.
Cabbage leaves (Brassica oleracea) are treated by being dipped into the preparation of active compound of the desired concentration and are populated with caterpillars of the diamondback moth (Plutella xylostella) while the leaves are still moist.
After the desired period of time, the kill in % is determined. 100% means that all caterpillars have been killed; 0% means that none of the caterpillars have been killed.

SMILES: Fc1cc(-c2nc3cc(-c4ccccc4)ccc3o2)ccc1C1CCC(c2c(F)cccc2F)=N1 (stereo not shown) [drawing 46]
- Efficacy in % after 7 d: 100%
